Data set [1] concerns PAR2. The data set is described as follows: PAR2 mRNA expression (qPCR) in LPS-stimulated THP-1 cells. The format is cell-based, human. The method, then: (§1) In order to evaluate the effect of 1-Piperidin Propionic acid on the transcriptional activity of the membrane receptor Protease Activated Receptor-2 (PAR2), monocyte-derived cell line THP-1 was used. The cells were incubated with LPS, known to induce PAR2 expression in this cell compartment, at a concentration of 1 ng/ml, or with medium alone, as a control, for 2 hours with 1-PPA at a concentration of 1 ng/ml and 100 ng/ml. In further experiments transfected HepG2 cells were used transiently with plasmid containing the human PAR2 sequence by Lipofectamy. These cells were incubated with medium alone, as a control, or with increasing concentrations of 1-PPA, as described above. Cell extracts from both lines were then subjected to extraction of cellular RNA which was reverse transcribed into cDNA and amplified by qPCR.
(§2) Similar results were also obtained in transfected HepG2 cells transiently to overexpress PAR2.

A further data set deals with TNF-α. As to the kind of experiment: LPS-induced TNF-α transcriptional expression in THP-1 cells (RT-PCR). The class given is cell-based, human. The method, then: (§3) Given that PAR2 is deeply implicated in the induction of proinflammatory cytokines, the ability of PPA in the inhibition of proinflammatory cytokines in a context simulating bacterial sepsis was evaluated. In FIGS. 3A and 3B the THP-1 cell line of monocytic origin was used, incubated with LPS ([…]), which in example 1 had induced an increase in the synthesis of endogenous PAR2. Cells were simultaneously treated with 1-PPA at a concentration of 1 ng/ml or 100 ng/ml or medium alone as control and incubated for 1 or 4 hours. The cell extracts were used to analyze the transcriptional expression of the cytokines TNF-α and IL-1β by RT-PCR.

The test system of data set [2] is PAR2. As to the kind of experiment: PAR2 mRNA expression (qPCR) in HepG2 cells transiently transfected to overexpress PAR2. The format is cell-based, human. As for the experimental part:
as §1, §2

Another data set concerns LPS-induced sepsis. The data set is described as follows: LPS-induced systemic sepsis model in mice. The note with it: LPS about 10 mg/kg intraperitoneal. The format is in vivo, C57BL/6 J mice. The method, then:
In vivo experiments are underway on models of systemic sepsis, in order to validate the protective effect of 1-PPA against the development of cytokine storm and septic shock with multiple organ failure, using C57BL/6 J mice. The first part of the study consists in the induction of sepsis through LPS and experimental treatment with 1-PPA.
The intraperitoneal administration with LPS (about 10 mg/kg, L4130, Sigma-Aldrich) associated with 1-PPA or alternatively with PBS, was carried out under anesthesia (Sevorane at 4% in medical oxygen) through the use of Fluovac (Harvard Instruments), dedicated for the anesthesia of small animals.
The time interval of 8 hours is considered the optimal interval for observing the onset of scientifically quantifiable sepsis in mice, and for evaluating the efficacy of a treatment aimed at inhibiting it by administering 1-PPA.
FIG. 6A illustrates the experimental design and the quantification of the degree of malaise using a score commonly used to determine the condition of the animal, where 0 refers to the normal condition and 5 refers to a pre-terminal condition. A score of 6 was attributed to the death of the animal.

The subject of the next data set is chronic kidney disease. The data set is described as follows: CKD induced by folic acid and treatment with 1-PPA. The note with it: FA 125 mg/kg i.p., 1-PPA i.p. 0.1 μg/g from third day, thirtieth day, expected. The format is in vivo, mouse. The method, then:
A single intraperitoneal injection of FA (dosage of 125 mg/kg) induces renal damage which reproduces the analogous syndrome in man after 30 days. To ensure maximum precision and least distress for the animal, the 1-PPA inoculation is performed by anesthetizing the mouse for a few minutes using deep inhalation surgical anesthesia using 4% Sevorane in medical oxygen administered through a Fluovac device (Harvard Instruments) specifically dedicated to the anesthesia of laboratory rodents.
Treatment with 1-PPA (i.p. injection at a concentration of 0.1 μg/g of body weight) begins from the third day after the induction of renal damage (groups FA+1-PPA). Control groups are treated with PBS (FA+PBS groups).
Renal function is monitored weekly by semiquantitative evaluation of proteinuria using multistix (Siemens). For urine collection, the […] is placed in a carefully cleaned plexiglass tray, in the presence of dedicated environmental enrichment. After 30 days from the induction of the renal damage the animals are sacrificed by cervical dislocation or excess anesthesia. Peripheral blood is collected by intracardiac puncture, and kidneys and liver are sampled in formalin and at −80° C. for subsequent evaluations of IHC and gene expression. […]

A further data set has as its system platelet aggregation. The data set is described as follows: Platelet aggregation, TRAP test, Multiplate analyzer, whole blood. The note with it: TRAP-6, increasing concentrations of 1-PPA. The class given is cell-based. The text has this:
The analysis of platelet function can be performed by the Multiplate® analyzer (Roche Diagnostics) which is a method based on impedance aggregometry and can be used to measure platelet function in whole blood in the presence or absence of inhibitors. In particular the TRAP test is an assay for the in vitro quantitative determination of platelet function triggered by thrombin receptor activating peptide-6 (TRAP-6) which is a potent platelet activator and stimulates platelet aggregation through the thrombin receptor PAR-1, this peptide has also been found capable of activating PAR2 (Cas #AS-24190-25, CliniScience), which can be activated by thrombin in the presence of thrombomodulin (Heuberger et al, Thrombosis Research 2019, 177:91-101).
Multiplate® Analyzer, Roche Diagnostics) was used, where the blood sample was analyzed alone or in presence of increasing concentrations of 1-PPA.

Data set [3] can be described thus: In vivo organ damage (liver, kidney) after 26 weeks of 1-PPA. Details: species or system CC57/BL6 mice. The following applies: 0.07 and 0.7 μg/g/week, normal diet, serum. The method, then: The organ damage of the 1-PPA compound in vivo was also evaluated, considering the function of the liver and kidney, the main organs responsible for pharmacological catabolismln detail, the study included 2 groups of CC57/BL6 mice (4 mice/group, age 45 days), inoculated with 1-PPA at concentrations of 0.07 and 0.7 μg/g/week), for a time period of 26 weeks. All animals were fed a normal diet throughout the study. Before starting the 1-PPA inoculation, a basal blood sample was taken from all animals and a second sample was taken from the sacrifice.
At serum level, alanine aminotransferase (ALT) as an indicator of hepatic cytolytic damage, bilirubin as an indicator of hepatic cholestasis, blood urea nitrogen (Blood urea nitrogen, BUN) as an indicator of renal damage were evaluated. The results were expressed as the ratio between the value of the final sampling and that of the basal sampling.

The next data set deals with gouty arthritis. As to the kind of experiment: Mouse model of gouty arthritis (uric acid microcrystals in hind paw). The format is in vivo, mice (C57BL6J). The source says: To evaluate the inhibitory capacity of 1-PPA in pain perception, notoriously mediated by PAR2 as a receptor of peripheral nerve endings (Andrea S. Rothmeier & Wolfram Ruf. Semin Immunopathol, 2012; 34:133-149), an experimental model of inflammatory arthritis was used. In particular, a mouse model of gout was used by injecting microcrystals of uric acid subcutaneously into the plantar surface of the hind legs of mice (C57BL6J), followed by injection of 1-PPA at different concentrations in one hind leg, using the contralateral leg as a control. After a few hours, the microcrystal treatment induces swelling and edema at the injection site which reaches a peak of inflammation and pain at 48 hours and then resolves spontaneously.
To evaluate the intensity of pain, the electronic von Frey test was used, which involves recording the intensity of the stimulus that evokes a withdrawal reflex, after the application of the pain stimulus to the plantar surface of the hind leg.

Data set [4] relates to PAR2. As to the kind of experiment: Cellular Thermal Shift Assay (CETSA) and Western blot in lysates of HepG2 cells overexpressing PAR2. The following applies: soluble fraction of extracts of HepG2 overexpressing PAR2, progressive increase in temperature. The class given is binding, human. The text has this: These interaction data between 1-PPA and PAR2 were also confirmed at the protein level, using the cellular thermal shift assay (CETSA) (Science 341 (6141): 84-87). This is a biophysical assay based on the principle of ligand-induced thermal stabilization of target proteins, as the melting temperature of proteins changes according to the interaction of the ligand.
This conformation was identified as level class 0, which is the highest scoring and most reliable analysis. […] In particular, HepG2 cells have been genetically modified to overexpress transiently PAR 2 using cDNA as expression plasmid 3.1. The soluble fraction of the cell extracts was then subjected to the CETSA test, in the presence or absence of 1-PPA, according to the protocol. The samples were also studied by Wester blot using an anti HA-tag PAR 2 monoclonal antibody.

The next data set concerns IL-1β. The data set is described as follows: LPS-induced IL-1β transcriptional expression in THP-1 cells (RT-PCR). The format is cell-based, human. As for the experimental part:
as §3

The subject of another data set is HepG2 cell line. As to the kind of experiment: In vitro toxicity, real-time cell proliferation (XCelligence) in HepG2. The class given is cell-based. The text has this:
Real-time cell proliferation was monitored using the XCelligence tool (ACEA) and the results were expressed as Cell Index, which expresses the cell number at each point considered.

[5] abbreviates: THP-1, 1-PPA 1 ng/ml or 100 ng/ml, 1 or 4 hours.

For the compound `O=C(O)CCN1CCCCC1` [1-PPA, 1-Piperidine Propionic Acid], the “PAR2 mRNA expression” value was “marked reduction of its expression” with PAR2 [1] (THP-1 cells, LPS 1 ng/ml, 2 hours, 1-PPA 1 ng/ml and 100 ng/ml); “effective inhibition of PAR2 mRNA” with PAR2 [2] (HepG2 transiently transfected with human PAR2 plasmid, increasing concentrations of 1-PPA). The “concentration capable of inhibiting the synthesis of PAR2” value in the data set with PAR2 [1] (THP-1 line, PAR2 overexpression conditions) is 1 ng/mL; with PAR2 [2] (HepG2 line, PAR2 overexpression conditions) it was 1 ng/mL. Also, in the data set on TNF-α (setting [5]), the “TNF-α transcriptional expression induced by LPS” value is reported as “effectively blocked”. The “concentration at which inhibitory effect is achieved” value in the data set on TNF-α (THP-1, LPS) came to 1 ng/mL; in the data set on IL-1β (THP-1, LPS), 1 ng/mL. In addition, the “degree of malaise score (0 normal, 5 pre-terminal, 6 death)” value in the data set on LPS-induced sepsis (1-PPA 3 μg, maximum reached) is recorded as no more than 2. In addition, the “protection from LPS-induced sepsis” value in the data set with LPS-induced sepsis (low concentrations of 1-PPA) is given as “protected mice from LPS-induced sepsis”. Also, the “mean value of proteinuria measured in the urine” value in the data set with chronic kidney disease is on record as “moderate residual damage”. Moreover, the platelet aggregation entry in the data set on platelet aggregation was “inhibiting platelet aggregation in a dose-dependent manner”. Also, the “alanine aminotransferase (ALT), ratio final/basal sampling” value in data set [3] is on record as less than 2 ×normal values. Also, in [3], the “bilirubin, ratio final/basal sampling” value is listed as less than 2 ×normal values. In addition, the “blood urea nitrogen (BUN), ratio final/basal sampling” value in [3] is less than 2 ×normal values. Also, the “stimulus to induce the withdrawal reflex (electronic von Frey test)” value in the data set on gouty arthritis (compared to mice injected only with microcrystals) is “significantly greater stimulus”. Further, the “paw edema and redness (confirmed by paw circumference)” value in the data set on gouty arthritis (urate microcrystals subcutaneously in plantar surface, 1-PPA injected in hind leg, versus not treated) was “visually less edematous and reddened”. In addition, the “thermal stabilization of PAR2 protein (CETSA)” value in the data set with PAR2 [4] is on record as “thermal stability of the PAR2 protein”. For the same compound, in the data set with IL-1β (setting [5]), the “IL-1β transcriptional expression induced by LPS” value is on record as “effectively blocked”. Besides, in the data set on IL-1β (lowest 1-PPA concentration (1 ng/ml), persisting LPS induction), the “control of IL-1β synthesis over time” value is reported as “still more effective in controlling the synthesis”. Also, in the data set with HepG2 cell line (5 μg/ml versus biologically effective dose), the “non-toxic concentration relative to biologically effective dose” value was “at least 50 times”. The “cellular toxic effect (Cell Index)” value with HepG2 cell line (HepG2, 5 μg/ml) is “did not demonstrate a cellular toxic effect”.

The values above are taken from US20260014132A1, “PROTEASE ACTIVATED RECEPTOR 2 (PAR2) INHIBITOR AND ITS USES” (UNIVERSITÀ DEGLI STUDI DI PADOVA, priority 2022, published 2026).
